Test results as given in US11213518B2, “Ligands of the mu, kappa, and delta opioid receptors” (The Board of Trustees of the Leland Stanford Junior …, priority 2017, dated 2022).
Entries after “also recorded” stand apart in the source; their conditions may differ. Like-named read-outs stand apart in the source and are kept apart here.

Legend:
[1] = target: T1, KOR-1 (Mus musculus, UniProt P33534); experiment: Competition binding against 125I-IBNtxA, KOR-1 CHO membranes; conditions: vs 125I-IBNtxA (0.1 nM), cloned mouse receptor, ± SEM
T1 construct: expressed in transfected cells
Experimental: (§1) FIGS. 7A-7C show competition assays at MOR-1, KOR-1 and DOR-1 against FMP4. Competition studies were performed with FMP4 against ^125I-IBNtxA (0.1 nM) in membranes from CHO cells stably expressing the indicated cloned mouse opioid receptors Each figure is a representative experiment that has been independently replicated at least three times. Error bars represent the SEM of triplicate samples. Error bars that cannot be seen are smaller than the size of the symbol.

[2] = target: T2, DOR-1 (Mus musculus, UniProt P32300); experiment: Competition binding against 125I-IBNtxA, DOR-1 CHO membranes; conditions: vs 125I-IBNtxA (0.1 nM)
T2 construct: expressed in transfected cells
Experimental: as §1

[3] = target: T3, MOR-1 (Mus musculus, UniProt P42866); experiment: Competition binding against 125I-IBNtxA, MOR-1 CHO membranes; parameters: expressed in transfected cells; conditions: vs 125I-IBNtxA (0.1 nM)
[4] = target: T3, MOR-1; experiment: Screening of MOR-1 binders, single-dose inhibition of 125IBNtxA specific binding; parameters: expressed in transfected cells; host or cells: CHO cells; conditions: single dose 10 μM
Description: Each panel is a representative experiment that has been independently replicated at least three times.

[5] = target: T3, MOR-1; experiment: [35S]-GTPγS assay in MOR-1 expressing CHO cells; type: biochemical; parameters: expressed in transfected cells; host or cells: CHO cells; conditions: for Functional character in [35S]GTPγS assay at MOR-1: MOR-1 expressing CHO cells, compared with full agonist DAMGO 100 nM
Description: Results are pooled from 3 independent replications and are expressed as mean±SEM.

[6] = cloned mouse receptor, ± SEM, read-out: Binding Data-Ki MOR-1
[7] = value in μM, read-out: Binding Data-Ki / affinity MOR-1 (μOR)

Structure (SMILES) | Ki [1] | Ki ([2]; cloned mouse receptor, ± SEM) | Ki [3, 6] | Ki [3, 7] | inhibition at 10 µM [4] | Antagonism of GTPγS stimulation by 100 nM DAMGO ([5]; FMP4 at 30 μM) | Functional character in [35S]GTPγS assay at MOR-1 [5] | Functional character in [35S]GTPγS assay at MOR-1 ([5]; listed as FMP 4) | Stimulation of GTPγS binding ([5]; doses 1, 10 and 30 μM, ceiling effect, p<0.0001 vs control) | Ki ([2]; value in μM)
Cc1ccccc1OCCCCCN1CCCCC1 [FMP1, 1-piperidino-5-(o-tolyloxy)pentane] | 7.39 ± 2.38 µM | 17.9 ± 7.61 µM | 0.841 ± 0.242 µM | < 10 µM | ≥ 30% | – | – | – | – | –
Cc1ccccc1OCCCCCCc1c(C)n[nH]c1C [FMP4, 3,5-dimethyl-4-[6-(o-tolyloxy)hexyl]-1H-pyrazole] | 2.5 ± 0.523 µM | 8.14 ± 1.4 µM | 3.22 ± 0.153 µM | 3.2 µM | ≥ 30% | antagonized the GTPγS stimulation of 100 nM DAMGO | weak partial agonism; also recorded: partial agonist | weak MOR-1 partial agonist | stimulates GTPγS binding | –
COc1cccc(OCCCCCN2CCCCC2)c1 [FMP6] | 6.94 ± 1.97 µM | – | – | > 30 µM | – | – | – | – | – | > 30 µM
Cc1ccc(OCCCCCCc2c(C)n[nH]c2C)cc1 [FMP16, 3,5-dimethyl-4-[6-(p-tolyloxy)hexyl]-1H-pyrazole] | 4.92 ± 2.24 µM | 9.06 ± 0.566 µM | 1.75 ± 0.492 µM | < 10 µM | ≥ 30% | – | – | – | – | –
Cc1cccc(C)c1OCCCCCN1CCN(C)CC1 [FMP21] | 5.5 ± 4.19 µM | – | – | > 30 µM | – | – | – | – | – | > 30 µM
Cc1ccccc1OCCCCCN1CCOCC1 [FMP30] | 6.01 ± 2.16 µM | 12.8 ± 0.856 µM | 11.3 ± 2.26 µM | – | – | – | – | – | – | –
